Experiments:
Assay in all cases: biochemical
Format in all cases: biochemical
[1] = target: 363 human kinases (including Aurora A/B/C) (Homo sapiens, UniProt O00506); details: STK25/YSK1; for remaining activity at 0.1 µM: 100 nM; for remaining activity at 0.1 µM / remaining activity at 0.5 µM: read-out: % Enzyme Activity (relative to DMSO controls)
Excerpt: (§1) However, the Aurora A/B selectivity ratios derived from our in vitro and in vivo data can be compared to prioritize inhibitors.

[2] = target: 363 human kinases (including Aurora A/B/C) (Homo sapiens, UniProt Q6DT37); details: DMPK2, [ATP] 2.5 µM; for remaining activity at 0.1 µM: 100 nM; for remaining activity at 0.1 µM / remaining activity at 0.5 µM: read-out: % Enzyme Activity (relative to DMSO controls)
Sequence of 363 human kinases (including Aurora A/B/C) (Homo sapiens, UniProt Q6DT37) (Q6DT37 whole entry): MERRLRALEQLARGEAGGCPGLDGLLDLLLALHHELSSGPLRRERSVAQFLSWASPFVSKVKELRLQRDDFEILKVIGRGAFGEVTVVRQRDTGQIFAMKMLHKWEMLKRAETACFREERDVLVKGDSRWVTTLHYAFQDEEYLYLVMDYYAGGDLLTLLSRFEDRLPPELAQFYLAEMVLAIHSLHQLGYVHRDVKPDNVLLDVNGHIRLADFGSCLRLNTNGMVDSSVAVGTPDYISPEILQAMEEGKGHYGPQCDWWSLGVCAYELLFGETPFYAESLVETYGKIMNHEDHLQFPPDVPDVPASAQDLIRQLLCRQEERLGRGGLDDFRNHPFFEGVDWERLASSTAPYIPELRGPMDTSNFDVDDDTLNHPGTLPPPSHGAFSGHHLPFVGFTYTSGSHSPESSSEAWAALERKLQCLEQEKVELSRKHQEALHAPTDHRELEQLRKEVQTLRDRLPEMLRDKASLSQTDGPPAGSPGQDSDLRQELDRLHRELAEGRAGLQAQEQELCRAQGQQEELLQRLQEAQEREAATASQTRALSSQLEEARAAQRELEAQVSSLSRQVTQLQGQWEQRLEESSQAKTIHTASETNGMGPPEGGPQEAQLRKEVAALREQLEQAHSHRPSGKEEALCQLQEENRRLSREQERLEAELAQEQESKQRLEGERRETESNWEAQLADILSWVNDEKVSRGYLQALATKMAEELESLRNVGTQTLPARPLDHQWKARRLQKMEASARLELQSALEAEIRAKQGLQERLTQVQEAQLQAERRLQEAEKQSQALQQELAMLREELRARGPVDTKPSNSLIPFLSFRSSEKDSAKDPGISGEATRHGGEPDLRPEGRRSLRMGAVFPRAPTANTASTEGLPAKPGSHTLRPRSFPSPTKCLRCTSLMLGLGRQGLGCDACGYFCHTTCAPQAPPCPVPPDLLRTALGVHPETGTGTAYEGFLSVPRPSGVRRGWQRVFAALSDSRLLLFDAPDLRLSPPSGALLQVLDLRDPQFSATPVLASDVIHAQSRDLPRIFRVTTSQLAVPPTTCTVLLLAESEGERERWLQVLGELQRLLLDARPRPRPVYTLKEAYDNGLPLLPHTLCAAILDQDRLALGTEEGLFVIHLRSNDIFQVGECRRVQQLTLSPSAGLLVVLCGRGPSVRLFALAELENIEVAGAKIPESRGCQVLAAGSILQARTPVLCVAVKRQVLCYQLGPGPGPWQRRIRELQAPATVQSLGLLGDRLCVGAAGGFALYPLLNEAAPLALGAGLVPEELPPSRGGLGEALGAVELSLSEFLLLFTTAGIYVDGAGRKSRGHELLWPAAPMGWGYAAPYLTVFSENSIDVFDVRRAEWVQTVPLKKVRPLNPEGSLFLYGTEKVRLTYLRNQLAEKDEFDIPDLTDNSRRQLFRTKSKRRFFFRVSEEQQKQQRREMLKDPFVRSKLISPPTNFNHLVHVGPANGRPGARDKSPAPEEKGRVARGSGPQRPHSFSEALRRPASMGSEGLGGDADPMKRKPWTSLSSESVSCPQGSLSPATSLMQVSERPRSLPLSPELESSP
Excerpt: as §1

[3] = target: T1, 363 human kinases (including Aurora A/B/C) (Homo sapiens, UniProt P42679); details: CTK/MATK, [ATP] 100 µM; for remaining activity at 0.1 µM: 100 nM; for remaining activity at 0.1 µM / remaining activity at 0.5 µM: read-out: % Enzyme Activity (relative to DMSO controls)
T1 sequence (P42679 1-507): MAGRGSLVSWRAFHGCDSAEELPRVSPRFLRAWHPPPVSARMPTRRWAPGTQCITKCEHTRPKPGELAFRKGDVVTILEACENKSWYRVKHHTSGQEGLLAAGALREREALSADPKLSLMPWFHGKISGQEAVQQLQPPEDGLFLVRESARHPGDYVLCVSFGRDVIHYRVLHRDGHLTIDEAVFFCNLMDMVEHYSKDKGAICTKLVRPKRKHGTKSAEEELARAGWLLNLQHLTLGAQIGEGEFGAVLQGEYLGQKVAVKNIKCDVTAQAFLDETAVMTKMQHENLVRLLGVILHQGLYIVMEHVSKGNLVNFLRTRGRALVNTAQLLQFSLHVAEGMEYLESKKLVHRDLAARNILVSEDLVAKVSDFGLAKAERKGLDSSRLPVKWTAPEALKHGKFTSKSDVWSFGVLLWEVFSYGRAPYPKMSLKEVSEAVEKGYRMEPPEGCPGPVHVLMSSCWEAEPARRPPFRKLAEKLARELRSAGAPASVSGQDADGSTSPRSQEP
Excerpt: as §1

[4] = target: T2, 363 human kinases (including Aurora A/B/C) (Homo sapiens, UniProt Q09013); details: DMPK, [ATP] 15 µM; for remaining activity at 0.1 µM: 100 nM; for remaining activity at 0.1 µM / remaining activity at 0.5 µM: read-out: % Enzyme Activity (relative to DMSO controls)
T2 sequence (Q09013 1-629): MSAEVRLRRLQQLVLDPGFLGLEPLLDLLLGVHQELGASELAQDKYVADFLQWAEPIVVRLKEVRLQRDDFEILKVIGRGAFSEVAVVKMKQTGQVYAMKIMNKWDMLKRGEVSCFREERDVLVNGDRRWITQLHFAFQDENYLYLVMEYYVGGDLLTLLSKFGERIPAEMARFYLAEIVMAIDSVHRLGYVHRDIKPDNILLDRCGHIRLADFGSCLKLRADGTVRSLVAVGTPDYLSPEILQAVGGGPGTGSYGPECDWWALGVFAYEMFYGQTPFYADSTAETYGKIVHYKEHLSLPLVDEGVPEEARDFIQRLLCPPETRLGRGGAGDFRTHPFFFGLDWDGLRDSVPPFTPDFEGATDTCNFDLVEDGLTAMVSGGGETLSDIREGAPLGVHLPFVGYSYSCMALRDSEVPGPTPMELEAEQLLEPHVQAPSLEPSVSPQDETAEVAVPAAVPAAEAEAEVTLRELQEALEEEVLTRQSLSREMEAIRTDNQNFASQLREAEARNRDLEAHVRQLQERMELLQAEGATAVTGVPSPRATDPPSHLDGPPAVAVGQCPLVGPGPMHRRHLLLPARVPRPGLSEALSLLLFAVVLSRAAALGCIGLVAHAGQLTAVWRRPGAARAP
Excerpt: as §1

[5] = target: 363 human kinases (including Aurora A/B/C) (Homo sapiens, UniProt Q02763); details: TIE2/TEK; for remaining activity at 0.1 µM: 100 nM; for remaining activity at 0.1 µM / remaining activity at 0.5 µM: read-out: % Enzyme Activity (relative to DMSO controls)
Sequence of 363 human kinases (including Aurora A/B/C) (Homo sapiens, UniProt Q02763) (Q02763 23-1124): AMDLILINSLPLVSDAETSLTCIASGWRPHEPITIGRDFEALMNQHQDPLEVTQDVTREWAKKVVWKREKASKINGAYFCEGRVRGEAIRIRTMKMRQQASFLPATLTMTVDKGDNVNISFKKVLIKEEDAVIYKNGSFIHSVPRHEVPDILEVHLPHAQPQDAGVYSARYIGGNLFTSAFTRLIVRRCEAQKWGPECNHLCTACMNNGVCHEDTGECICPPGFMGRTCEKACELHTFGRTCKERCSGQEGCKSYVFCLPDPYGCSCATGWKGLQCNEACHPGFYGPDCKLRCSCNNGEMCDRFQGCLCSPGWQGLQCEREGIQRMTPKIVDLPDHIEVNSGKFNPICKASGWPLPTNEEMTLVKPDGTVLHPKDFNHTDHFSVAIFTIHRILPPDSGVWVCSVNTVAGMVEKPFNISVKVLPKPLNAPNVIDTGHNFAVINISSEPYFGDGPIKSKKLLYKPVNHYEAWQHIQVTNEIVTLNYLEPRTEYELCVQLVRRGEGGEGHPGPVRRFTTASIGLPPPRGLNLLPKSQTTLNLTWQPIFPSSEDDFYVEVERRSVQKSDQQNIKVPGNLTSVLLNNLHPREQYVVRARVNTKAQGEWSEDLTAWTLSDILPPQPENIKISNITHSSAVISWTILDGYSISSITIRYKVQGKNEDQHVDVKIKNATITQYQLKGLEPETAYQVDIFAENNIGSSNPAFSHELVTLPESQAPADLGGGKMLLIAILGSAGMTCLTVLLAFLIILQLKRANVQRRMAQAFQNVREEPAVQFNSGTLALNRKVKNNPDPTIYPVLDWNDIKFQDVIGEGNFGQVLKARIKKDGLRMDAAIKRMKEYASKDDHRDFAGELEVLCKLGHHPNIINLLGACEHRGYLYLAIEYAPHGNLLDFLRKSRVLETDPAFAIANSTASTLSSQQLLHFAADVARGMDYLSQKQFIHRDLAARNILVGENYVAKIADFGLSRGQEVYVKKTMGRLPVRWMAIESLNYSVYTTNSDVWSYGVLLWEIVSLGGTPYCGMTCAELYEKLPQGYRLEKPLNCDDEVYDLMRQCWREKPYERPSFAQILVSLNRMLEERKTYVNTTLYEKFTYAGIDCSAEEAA
Excerpt: as §1

[6] = target: T3, 363 human kinases (including Aurora A/B/C) (Homo sapiens, UniProt Q9BXA7); details: STK22D/TSSK1; for remaining activity at 0.1 µM: 100 nM; for remaining activity at 0.1 µM / remaining activity at 0.5 µM: read-out: % Enzyme Activity (relative to DMSO controls)
T3 sequence (Q9BXA7 1-367): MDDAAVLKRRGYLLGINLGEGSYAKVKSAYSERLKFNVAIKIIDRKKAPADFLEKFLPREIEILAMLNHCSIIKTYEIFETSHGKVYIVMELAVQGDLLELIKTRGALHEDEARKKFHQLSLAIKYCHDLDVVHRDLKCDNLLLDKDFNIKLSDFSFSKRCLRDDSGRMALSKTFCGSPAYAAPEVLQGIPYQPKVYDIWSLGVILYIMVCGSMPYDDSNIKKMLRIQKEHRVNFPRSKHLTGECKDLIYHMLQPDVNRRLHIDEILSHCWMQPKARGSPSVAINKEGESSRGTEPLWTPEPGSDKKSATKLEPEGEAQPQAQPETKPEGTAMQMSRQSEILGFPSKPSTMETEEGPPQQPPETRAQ
Excerpt: as §1

[7] = target: 363 human kinases (including Aurora A/B/C) (Homo sapiens, UniProt Q9Y4K4); details: KHS/MAP4K5; for remaining activity at 0.1 µM: 100 nM; for remaining activity at 0.1 µM / remaining activity at 0.5 µM: read-out: % Enzyme Activity (relative to DMSO controls)
Sequence of 363 human kinases (including Aurora A/B/C) (Homo sapiens, UniProt Q9Y4K4) (Q9Y4K4 whole entry): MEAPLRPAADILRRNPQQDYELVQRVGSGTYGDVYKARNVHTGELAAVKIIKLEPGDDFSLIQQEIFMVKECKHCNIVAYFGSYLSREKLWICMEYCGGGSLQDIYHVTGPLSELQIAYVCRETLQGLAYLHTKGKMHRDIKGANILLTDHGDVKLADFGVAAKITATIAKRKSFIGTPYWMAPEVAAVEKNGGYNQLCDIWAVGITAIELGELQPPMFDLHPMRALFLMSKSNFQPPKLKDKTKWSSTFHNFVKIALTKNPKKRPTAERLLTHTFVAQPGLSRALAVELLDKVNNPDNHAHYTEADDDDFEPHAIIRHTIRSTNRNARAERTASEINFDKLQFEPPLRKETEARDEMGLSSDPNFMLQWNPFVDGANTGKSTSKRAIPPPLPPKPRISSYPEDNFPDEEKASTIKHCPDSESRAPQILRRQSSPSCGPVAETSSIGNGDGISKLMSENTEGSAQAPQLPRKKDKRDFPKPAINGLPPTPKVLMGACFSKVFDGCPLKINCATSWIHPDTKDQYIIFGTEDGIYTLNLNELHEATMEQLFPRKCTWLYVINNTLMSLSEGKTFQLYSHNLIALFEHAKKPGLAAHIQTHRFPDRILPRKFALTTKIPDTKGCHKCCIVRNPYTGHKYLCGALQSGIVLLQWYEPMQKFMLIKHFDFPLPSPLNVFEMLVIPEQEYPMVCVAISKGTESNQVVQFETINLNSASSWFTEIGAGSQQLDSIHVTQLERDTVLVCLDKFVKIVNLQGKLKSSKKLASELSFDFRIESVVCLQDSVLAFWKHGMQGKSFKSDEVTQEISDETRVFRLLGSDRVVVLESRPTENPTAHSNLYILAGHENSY
Excerpt: as §1

[8] = target: T4, 363 human kinases (including Aurora A/B/C) (Homo sapiens, UniProt Q9UHD2); details: TBK1; for remaining activity at 0.1 µM: 100 nM; for remaining activity at 0.1 µM / remaining activity at 0.5 µM: read-out: % Enzyme Activity (relative to DMSO controls)
T4 sequence (Q9UHD2 1-729): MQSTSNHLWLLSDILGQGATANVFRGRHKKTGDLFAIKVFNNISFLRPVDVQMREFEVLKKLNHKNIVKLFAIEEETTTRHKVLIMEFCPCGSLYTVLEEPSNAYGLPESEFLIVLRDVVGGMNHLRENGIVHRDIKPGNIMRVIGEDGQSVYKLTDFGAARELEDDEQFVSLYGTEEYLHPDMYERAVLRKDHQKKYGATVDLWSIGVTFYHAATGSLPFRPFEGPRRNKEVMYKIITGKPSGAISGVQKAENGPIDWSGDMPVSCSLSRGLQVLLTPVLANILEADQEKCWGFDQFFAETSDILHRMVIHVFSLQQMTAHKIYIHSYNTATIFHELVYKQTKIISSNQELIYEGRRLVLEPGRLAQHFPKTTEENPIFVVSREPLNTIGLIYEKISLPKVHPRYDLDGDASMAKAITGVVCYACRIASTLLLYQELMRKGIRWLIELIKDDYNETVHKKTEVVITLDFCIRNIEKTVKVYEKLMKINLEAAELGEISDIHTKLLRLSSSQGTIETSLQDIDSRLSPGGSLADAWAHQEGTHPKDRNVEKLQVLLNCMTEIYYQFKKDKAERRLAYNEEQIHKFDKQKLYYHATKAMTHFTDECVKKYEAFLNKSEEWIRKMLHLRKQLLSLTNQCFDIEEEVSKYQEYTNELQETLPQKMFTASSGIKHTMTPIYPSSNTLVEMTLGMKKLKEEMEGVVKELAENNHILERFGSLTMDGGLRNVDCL
Excerpt: as §1

[9] = target: 363 human kinases (including Aurora A/B/C) (Homo sapiens, UniProt P04629); details: TRKA; for remaining activity at 0.1 µM: 100 nM
Sequence of 363 human kinases (including Aurora A/B/C) (Homo sapiens, UniProt P04629) (P04629 33-796): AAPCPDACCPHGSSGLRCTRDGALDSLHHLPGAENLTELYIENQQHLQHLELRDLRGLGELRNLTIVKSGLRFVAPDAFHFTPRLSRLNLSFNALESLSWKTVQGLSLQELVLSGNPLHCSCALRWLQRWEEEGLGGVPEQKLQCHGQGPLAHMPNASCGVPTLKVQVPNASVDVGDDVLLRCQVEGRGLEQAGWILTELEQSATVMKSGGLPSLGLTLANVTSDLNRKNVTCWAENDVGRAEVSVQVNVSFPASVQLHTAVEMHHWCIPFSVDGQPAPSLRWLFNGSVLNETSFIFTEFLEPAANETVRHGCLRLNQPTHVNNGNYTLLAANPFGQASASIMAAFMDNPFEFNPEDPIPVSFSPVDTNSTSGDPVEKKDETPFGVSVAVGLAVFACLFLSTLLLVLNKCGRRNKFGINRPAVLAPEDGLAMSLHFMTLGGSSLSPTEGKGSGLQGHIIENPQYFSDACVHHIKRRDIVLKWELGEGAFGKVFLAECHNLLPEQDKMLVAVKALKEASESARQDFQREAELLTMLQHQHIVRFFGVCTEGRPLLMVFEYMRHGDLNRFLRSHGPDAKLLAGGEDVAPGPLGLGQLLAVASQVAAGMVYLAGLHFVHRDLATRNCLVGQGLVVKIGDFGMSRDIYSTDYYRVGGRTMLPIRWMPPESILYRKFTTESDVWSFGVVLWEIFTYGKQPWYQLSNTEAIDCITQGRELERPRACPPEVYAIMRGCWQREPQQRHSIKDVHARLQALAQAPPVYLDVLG
Excerpt: as §1

[10] = read-out: % Enzyme Activity (relative to DMSO controls)

Sequence of 363 human kinases (including Aurora A/B/C) (Homo sapiens, UniProt O00506) (O00506 whole entry): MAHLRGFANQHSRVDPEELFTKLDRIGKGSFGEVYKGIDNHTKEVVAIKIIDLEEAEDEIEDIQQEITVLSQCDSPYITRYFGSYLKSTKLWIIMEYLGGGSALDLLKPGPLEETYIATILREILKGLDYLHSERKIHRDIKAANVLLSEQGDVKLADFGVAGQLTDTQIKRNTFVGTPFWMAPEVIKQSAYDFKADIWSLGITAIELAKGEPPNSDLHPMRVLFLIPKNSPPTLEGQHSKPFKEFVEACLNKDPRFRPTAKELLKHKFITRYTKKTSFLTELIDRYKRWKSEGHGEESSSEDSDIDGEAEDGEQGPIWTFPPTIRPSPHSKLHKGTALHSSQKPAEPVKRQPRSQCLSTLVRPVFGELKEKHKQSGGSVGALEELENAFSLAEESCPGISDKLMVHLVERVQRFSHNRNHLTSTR

CCn1cc(-c2ccnc3[nH]c(-c4cccc(CN(C)C)c4)cc23)c(-c2ccc(NC(=O)N(C)C)cc2)n1 [GSK1070916]
remaining activity at 0.1 µM [1]: 98.9% | remaining activity at 0.1 µM [2]: 89.4% | remaining activity at 0.1 µM [3]: 82.4% | remaining activity at 0.1 µM [4]: 114% | remaining activity at 0.1 µM [5]: 39.1% | remaining activity at 0.1 µM [6]: 90.1% | remaining activity at 0.1 µM [7]: 84% | remaining activity at 0.1 µM [8]: 93.7% | remaining activity at 0.1 µM [9, 10]: 87.7%

O=C(O)[C@]1(Cc2cccc(Nc3nccs3)n2)CC[C@@H](Oc2cccc(Cl)c2F)CC1 [MK-5108]
remaining activity at 0.1 µM [1]: 104% | remaining activity at 0.5 µM ([1]; 500 nM): 113% | remaining activity at 0.1 µM [2]: 98.7% | remaining activity at 0.5 µM ([2]; 500 nM): 140% | remaining activity at 0.1 µM [3]: 103% | remaining activity at 0.5 µM ([3]; 500 nM): 129% | remaining activity at 0.1 µM [4]: 105% | remaining activity at 0.5 µM ([4]; 500 nM): 115% | remaining activity at 0.1 µM [5]: 37.9% | remaining activity at 0.5 µM ([5]; 500 nM): 9.27% | remaining activity at 0.1 µM [6]: 106% | remaining activity at 0.5 µM ([6]; 500 nM): 94.4% | remaining activity at 0.1 µM [7]: 96.2% | remaining activity at 0.5 µM ([7]; 500 nM): 92.4% | remaining activity at 0.1 µM [8]: 108% | remaining activity at 0.5 µM ([8]; 500 nM): 88.6% | remaining activity at 0.1 µM [9, 10]: 8.42%

O=C(c1cccc(Cl)c1F)N1CCN(Cc2cccc(Nc3nccs3)n2)CC1 [MK-8745]
% Enzyme Activity (relative to DMSO controls) ([1]; 500 nM): 99.16% | remaining activity at 0.5 µM ([1]; 500 nM): 100% | % Enzyme Activity (relative to DMSO controls) ([2]; 500 nM): 124.49% | remaining activity at 0.5 µM ([2]; 500 nM): 126% | % Enzyme Activity (relative to DMSO controls) ([3]; 500 nM): 86.22% | remaining activity at 0.5 µM ([3]; 500 nM): 86.8% | % Enzyme Activity (relative to DMSO controls) ([4]; 500 nM): 114.90% | remaining activity at 0.5 µM ([4]; 500 nM): 115% | % Enzyme Activity (relative to DMSO controls) ([5]; 500 nM): 96.47% | remaining activity at 0.5 µM ([5]; 500 nM): 98.2% | % Enzyme Activity (relative to DMSO controls) ([6]; 500 nM): 93.43% | remaining activity at 0.5 µM ([6]; 500 nM): 93.6% | % Enzyme Activity (relative to DMSO controls) ([7]; 500 nM): 93.71% | remaining activity at 0.5 µM ([7]; 500 nM): 94% | % Enzyme Activity (relative to DMSO controls) ([8]; 500 nM): 102.60% | remaining activity at 0.5 µM ([8]; 500 nM): 105% | % Enzyme Activity (relative to DMSO controls) ([9]; 500 nM): 32.47% | remaining activity at 0.5 µM ([9]; 500 nM, read-out: % Enzyme Activity (relative to DMSO controls)): 34.6%

From article PMC4685510, “A Cell Biologist’s Field Guide to Aurora Kinase Inhibitors” (Frontiers in Oncology, 2015)
